Experimental data as given in ChEMBL document CHEMBL5380773, “Novel Feleucin-K3-Derived Peptides Modified with Sulfono-γ-AA Building Blocks Targeting Pseudomonas aeruginosa and Methicillin-Resistant Staphylococcus aureus Infections” (J Med Chem, 2023).
Numbered stars: 1 amine (or outer) side, 2 acyl side, 3 side chain; on linkers, the order of the positions; unused ones are H or OH. Square brackets hold non-standard residues; d marks the D form. Peptide text beside a SMILES is read from it. * marks the point of attachment. X21 = CC(C)c1cc(C(C)C)c(S(=O)(=O)N(CC(N)=O)C[C@H](Cc2ccccc2)N*)c(C(C)C)c1; X9 = NC(=O)CN(C[C@H](Cc1ccccc1)N*)S(=O)(=O)c1ccccc1[N+](=O)[O-]; X13 = NC(=O)CN(C[C@H](Cc1ccccc1)N*)S(=O)(=O)c1ccc(Br)cc1; X19 = COc1ccc(S(=O)(=O)N(CC(N)=O)C[C@H](Cc2ccccc2)N*)cc1; Benzenesulfonyl(2-NO2) = O=[N+]([O-])c1ccccc1S(=O)(=O)*; X23 = NC(=O)CN(C[C@H](Cc1ccccc1)N*)S(=O)(=O)c1ccc(F)cc1; X25 = CC(C)C[C@@H](CN(CC(N)=O)S(=O)(=O)c1cccc(Cl)c1)N*; X6 = COc1ccc(S(=O)(=O)N(CC(N)=O)C[C@H](CC(C)C)N*)cc1; Benzenesulfonyl(4-OMe) = COc1ccc(S(=O)(=O)*)cc1; Benzenesulfonyl(4-F) = O=S(=O)(c1ccc(F)cc1)*; X3 = N[C@@H](Cc1ccccc1)CN(CC(=O)[*:2])[*:1]; X2 = CC(C)C[C@H](N)CN(CC(=O)[*:2])[*:1]; Brosyl = O=S(=O)(c1ccc(Br)cc1)*; X20 = O=S(=O)(c1ccc(Cl)cc1)*; X1 = O=S(=O)(c1ccc(I)cc1)*

Test system: Erythrocyte
Test: Hemolytic activity against mouse red blood cells incubated for 1 hr
Assay type: toxicity, cell-based

Structure (SMILES)	MHC
CC(C)C[C@H](N)CN(CC(=O)N[C@@H](CCCCN)C(=O)N[C@@H](CC(C)C)C(=O)N[C@@H](CC(C)C)C(=O)N[C@@H](CCCCN)C(=O)N[C@@H](CCCCN)C(=O)N[C@@H](CC(C)C)C(=O)N[C@@H](CC(C)C)C(N)=O)S(=O)(=O)c1ccc(Cl)cc1 (X20-[X2]KLLKKLL-NH2)	256 µg/mL
CC(C)C[C@@H](CN(CC(N)=O)S(=O)(=O)c1cccc(Cl)c1)NC(=O)[C@H](CCCCN)NC(=O)[C@H](CCCCN)NC(=O)[C@H](CC(C)C)NC(=O)[C@H](CC(C)C)NC(=O)[C@H](CCCCN)NC(=O)[C@H](CC(C)C)NC(=O)[C@@H](N)Cc1ccccc1 (H-FLKLLKK-X25)	256 µg/mL
COc1ccc(S(=O)(=O)N(CC(=O)N[C@@H](CCCCN)C(=O)N[C@@H](CC(C)C)C(=O)N[C@@H](CC(C)C)C(=O)N[C@@H](CCCCN)C(=O)N[C@@H](CCCCN)C(=O)N[C@@H](CC(C)C)C(=O)N[C@@H](CC(C)C)C(N)=O)C[C@@H](N)CC(C)C)cc1 ({Benzenesulfonyl(4-OMe)}-[X2]KLLKKLL-NH2)	256 µg/mL
COc1ccc(S(=O)(=O)N(CC(N)=O)C[C@H](CC(C)C)NC(=O)[C@H](CCCCN)NC(=O)[C@H](CCCCN)NC(=O)[C@H](CC(C)C)NC(=O)[C@H](CC(C)C)NC(=O)[C@H](CCCCN)NC(=O)[C@H](CC(C)C)NC(=O)[C@@H](N)Cc2ccccc2)cc1 (H-FLKLLKK-X6)	256 µg/mL
CC(C)C[C@H](NC(=O)[C@H](CC(C)C)NC(=O)[C@H](CCCCN)NC(=O)[C@H](CC(C)C)NC(=O)[C@@H](N)Cc1ccccc1)C(=O)N[C@@H](CCCCN)C(=O)N[C@@H](CCCCN)C(=O)N[C@@H](Cc1ccccc1)CN(CC(N)=O)S(=O)(=O)c1c(C(C)C)cc(C(C)C)cc1C(C)C (H-FLKLLKK-X21)	32 µg/mL
CC(C)C[C@H](NC(=O)[C@H](CC(C)C)NC(=O)[C@H](CCCCN)NC(=O)[C@H](CCCCN)NC(=O)[C@H](CC(C)C)NC(=O)[C@H](CC(C)C)NC(=O)[C@H](CCCCN)NC(=O)CN(C[C@@H](N)Cc1ccccc1)S(=O)(=O)c1ccc(I)cc1)C(N)=O (X1-[X3]KLLKKLL-NH2)	32 µg/mL
CC(C)C[C@H](NC(=O)[C@H](CC(C)C)NC(=O)[C@H](CCCCN)NC(=O)[C@H](CC(C)C)NC(=O)[C@@H](N)Cc1ccccc1)C(=O)N[C@@H](CCCCN)C(=O)N[C@@H](CCCCN)C(=O)N[C@@H](Cc1ccccc1)CN(CC(N)=O)S(=O)(=O)c1ccc(F)cc1 (H-FLKLLKK-X23)	256 µg/mL
CC(C)C[C@H](NC(=O)[C@H](CC(C)C)NC(=O)[C@H](CCCCN)NC(=O)[C@H](CCCCN)NC(=O)[C@H](CC(C)C)NC(=O)[C@H](CC(C)C)NC(=O)[C@H](CCCCN)NC(=O)CN(C[C@@H](N)Cc1ccccc1)S(=O)(=O)c1ccc(Br)cc1)C(N)=O (Brosyl-[X3]KLLKKLL-NH2)	64 µg/mL
COc1ccc(S(=O)(=O)N(CC(N)=O)C[C@H](Cc2ccccc2)NC(=O)[C@H](CCCCN)NC(=O)[C@H](CCCCN)NC(=O)[C@H](CC(C)C)NC(=O)[C@H](CC(C)C)NC(=O)[C@H](CCCCN)NC(=O)[C@H](CC(C)C)NC(=O)[C@@H](N)Cc2ccccc2)cc1 (H-FLKLLKK-X19)	256 µg/mL
CC(C)C[C@H](NC(=O)[C@H](CC(C)C)NC(=O)[C@H](CCCCN)NC(=O)[C@H](CCCCN)NC(=O)[C@H](CC(C)C)NC(=O)[C@H](CC(C)C)NC(=O)[C@H](CCCCN)NC(=O)CN(C[C@@H](N)Cc1ccccc1)S(=O)(=O)c1ccc(Cl)cc1)C(N)=O (X20-[X3]KLLKKLL-NH2)	64 µg/mL
CC(C)C[C@H](NC(=O)[C@H](CC(C)C)NC(=O)[C@H](CCCCN)NC(=O)[C@H](CCCCN)NC(=O)[C@H](CC(C)C)NC(=O)[C@H](CC(C)C)NC(=O)[C@H](CCCCN)NC(=O)CN(C[C@@H](N)Cc1ccccc1)S(=O)(=O)c1ccc(F)cc1)C(N)=O ({Benzenesulfonyl(4-F)}-[X3]KLLKKLL-NH2)	256 µg/mL
CC(C)C[C@H](NC(=O)[C@H](CC(C)C)NC(=O)[C@H](CCCCN)NC(=O)[C@H](CCCCN)NC(=O)[C@H](CC(C)C)NC(=O)[C@H](CC(C)C)NC(=O)[C@H](CCCCN)NC(=O)CN(C[C@@H](N)Cc1ccccc1)S(=O)(=O)c1ccccc1[N+](=O)[O-])C(N)=O ({Benzenesulfonyl(2-NO2)}-[X3]KLLKKLL-NH2)	256 µg/mL
CC(C)C[C@H](NC(=O)[C@H](CC(C)C)NC(=O)[C@H](CCCCN)NC(=O)[C@H](CC(C)C)NC(=O)[C@@H](N)Cc1ccccc1)C(=O)N[C@@H](CCCCN)C(=O)N[C@@H](CCCCN)C(=O)N[C@@H](Cc1ccccc1)CN(CC(N)=O)S(=O)(=O)c1ccc(Br)cc1 (H-FLKLLKK-X13)	256 µg/mL
CC(C)C[C@H](NC(=O)[C@H](CC(C)C)NC(=O)[C@H](CCCCN)NC(=O)[C@H](CC(C)C)NC(=O)[C@@H](N)Cc1ccccc1)C(=O)N[C@@H](CCCCN)C(=O)N[C@@H](CCCCN)C(=O)N[C@@H](Cc1ccccc1)CN(CC(N)=O)S(=O)(=O)c1ccccc1[N+](=O)[O-] (H-FLKLLKK-X9)	256 µg/mL
